Like-named read-outs stand apart in the source and are kept apart here.
Tests used:
[1] = molecular target: T1, IDH2^R172K (Homo sapiens, UniProt P48735, R172K); assay: NADPH depletion assay, IDH2 R172K; assay type: biochemical
T1 construct: purchased not specified
T1 sequence (P48735 40-452 R172K): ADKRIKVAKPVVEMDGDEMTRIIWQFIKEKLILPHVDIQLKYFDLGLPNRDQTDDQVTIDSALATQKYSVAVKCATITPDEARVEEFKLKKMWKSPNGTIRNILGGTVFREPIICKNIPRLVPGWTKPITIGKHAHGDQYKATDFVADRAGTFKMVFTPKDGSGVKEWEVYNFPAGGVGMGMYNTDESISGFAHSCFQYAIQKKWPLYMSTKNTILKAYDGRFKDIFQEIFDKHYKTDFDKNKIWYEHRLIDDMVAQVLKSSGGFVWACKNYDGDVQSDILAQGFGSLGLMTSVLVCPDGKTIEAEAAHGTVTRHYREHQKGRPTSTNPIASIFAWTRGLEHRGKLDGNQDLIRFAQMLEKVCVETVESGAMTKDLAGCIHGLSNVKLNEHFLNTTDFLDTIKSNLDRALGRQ
Outline: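 IDH2 R172K (16 nM) was preincubated 15 min at RT with compound (1:3 series from 1 mM in DMSO) in Tris pH 7.6/NaCl/MgCl2/Triton/β-mercaptoethanol. The reaction ran 60 min at RT with 0.55 mM alpha-ketoglutarate and NADPH (12 μM in the substrate mix). Remaining NADPH was read with diaphorase/resazurin fluorescence at Ex544/Em590.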

[2] = molecular target: T2, IDH1^R132H homodimer enzyme (Homo sapiens, UniProt O75874, R132H); assay: NADPH depletion assay, IDH1 R132H; assay type: biochemical
T2 construct: purchased not specified
T2 sequence (O75874 whole entry R132H): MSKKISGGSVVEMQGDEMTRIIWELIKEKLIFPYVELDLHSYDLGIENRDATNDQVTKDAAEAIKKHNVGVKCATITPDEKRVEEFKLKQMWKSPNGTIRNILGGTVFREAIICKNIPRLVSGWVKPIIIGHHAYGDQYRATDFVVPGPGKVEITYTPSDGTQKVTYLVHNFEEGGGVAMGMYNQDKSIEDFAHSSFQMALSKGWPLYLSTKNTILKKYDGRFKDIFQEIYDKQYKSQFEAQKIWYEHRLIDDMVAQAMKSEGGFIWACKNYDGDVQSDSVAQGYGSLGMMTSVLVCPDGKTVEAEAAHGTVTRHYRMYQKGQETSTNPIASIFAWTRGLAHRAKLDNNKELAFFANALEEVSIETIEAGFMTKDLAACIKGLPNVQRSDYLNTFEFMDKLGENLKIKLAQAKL
Outline: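 IDH1 R132H enzyme (8 nM as diluted) in Tris-HCl pH 7.6 with 10 mM MgCl2, 0.001% Triton X-100 and 4 mM β-mercaptoethanol is preincubated 15 min at RT with compound. Substrate mix (12 uM NADPH, 3.4 mM α-ketoglutarate) is added for 60 min; remaining NAD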

[3] = molecular target: T3, IDH1^R132C (Homo sapiens, UniProt O75874, R132C); assay: NADPH depletion assay, IDH1 R132C; assay type: biochemical
T3 construct: purchased not specified
T3 sequence (O75874 whole entry R132C): as the sequence (O75874 whole entry R132H) above, with H132C counted along it
Outline: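 IDH1 R132C (2 nM) preincubated 15 min at RT with compound in Tris-HCl pH 7.6/MgCl2 buffer, then 60 min RT with NADPH and 0.14 mM alpha-ketoglutarate. Remaining NADPH read by diaphorase/resazurin fluorescence (Ex544/Em590).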

[4] = tested on: HT-1080 (IDH1^R132C); assay: Cellular 2-HG production assay, HT-1080; assay type: cell-based; conditions: read-out: HT1080 2-HG IC50
Method: (§1) Cell lines HT-1080 (commercially available) and U87-MG-IDH1^R132H (obtained in analoy to the procedure reported in J. Mol. Neurosci 2013, 50, 165-71) are maintained in E-MEM 10% FCS and incubated at 37° C. in a humidified 5% CO2 atmosphere. Stably transfected U87-MG cell lines are also supplemented with 500 μg/mL G418.
(§2) Cells are seeded into 96 well black flat bottom plates at a density of 500 cells/well in 100 μL complete medium. After 24 hr the medium is replaced with 200 uL of fresh medium and compounds (dissolved into DMSO) are administrated to the cells using D300E Digital Dispenser (Tecan).
(§3) After 72 hr of incubation 100 uL from each well are collected and used for 2HG (R(−)-2-hydroxyglutarate) quantification.
(§4) Levels of 2-HG in cell culture media are determined by LC-MS/MS. Cell supernatants (100 μL/well) are treated with 1 M aqueous trichloroacetic acid containing 130 μM of the internal standard 2-HG-d3 (20 μL/well) in a 96-well plate.
(§5) The plates are sealed, mildly vortexed for 60 minutes, centrifuged at 4,000 RPM for 15 minutes, placed in a refrigerated autosampler taking care not to shake them, and aliquots of the upper part of the samples are directly injected in the chromatographic system. Calibration standards are obtained by ten fold dilution of aqueous 2-HG stock solutions with blank cell culture medium and denatured exactly in the same way as described above for samples. Samples and standards are assayed for 2-HG by reversed phase chromatography on a C18 column eluted with aqueous 0.15% formic acid and briefly washed with 90% methanol at the end of the run. 2-HG is determined by negative ion electrospray ionization with the internal standard method on a triple quadrupole mass spectrometer monitoring the MRM transitions 147>129 (2-HG) and 150>132 (2-HG-d3). 2-HG inhibition was calculated by comparing treated versus control data using Assay Explore (Symyx) software, with IC50 determined using a sigmoidal fitting algorithm.

[5] = tested on: U87MG_IDH1R132H; assay: Cellular 2-HG production assay, U87-MG-IDH1 R132H; assay type: cell-based; conditions: inhibition of 2HG production, 72 hr incubation, LC-MS/MS
Method: as §1, §2, §3, §4, §5

[6] = Homo sapiens, HT-1080, 72 h, inhibition of 2HG production, 72 hr incubation, LC-MS/MS

Row | SMILES | IC50 [1] | IC50 [2] | IC50 [3] | IC50 [4, 6] | IC50 [5] | IC50 ([4]; Homo sapiens, HT-1080, 72 h) | IC50 ([4]; inhibition of 2HG production, 72 hr incubation, LC-MS/MS)
1 | C=CC(=O)N1CCN([C@@H](CC)c2ccc([C@H](C)Nc3cc4c(ccc(=O)n4C(C)C)cn3)cc2)CC1 [cpd 239, 7-{[(1S)-1-{4-[(1S)-1-(4-acryloylpiperazin-1-yl)propyl]phenyl}ethyl]amino}-1-(propan-2-yl)-1,6-naphthyridin-2(1H)-one] | 20 nM | 2 nM | 2 nM | 0.9 nM | – | – | –
2 | C[C@H](Nc1ncc2ccc(=O)n(Cc3c(F)cccc3F)c2n1)c1ccc(C(=O)NC2CCC(F)(F)CC2)cc1 [cpd 75, 4-[(1S)-1-{[8-(2,6-difluorobenzyl)-7-oxo-pyrido[2,3-d]pyrimidin-2-yl]amino}ethyl]-N-(4,4-difluorocyclohexyl)benzamide] | – | 407 nM | 431 nM | – | 1190 nM | – | –
3 | CC(C)Cn1c(=O)ccc2cnc(N[C@@H](C)c3ccc(CN4CCC(F)(F)CC4)cc3)nc21 [cpd 104, 2-{[(1S)-1-{4-[(4,4-difluoropiperidin-1-yl)methyl]phenyl}ethyl]amino}-8-(2-methylpropyl)pyrido[2,3-d]pyrimidin-7(8H)-one] | 5130 nM | 276 nM | 121 nM | – | 1770 nM | – | –
4 | C[C@H](Nc1ncc2ccc(=O)n(CC(C)(C)C)c2n1)c1ccc2ccccc2c1 [cpd 36, 8-(2,2-dimethylpropyl)-2-{[(1S)-1-(naphthalen-2-yl)ethyl]amino}pyrido[2,3-d]pyrimidin-7(8H)-one] | 6540 nM | 178 nM | – | – | 4040 nM | – | –
5 | C=CC(=O)N1CCN(C(=O)c2ccc([C@H](C)Nc3ncc4ccc(=O)n(CC(C)(C)C)c4n3)cc2F)CC1 [cpd 142, 2-{[(1S)-1-{4-[(4-acryloylpiperazin-1-yl)carbonyl]-3-fluorophenyl}ethyl]amino}-8-(2,2-dimethylpropyl)pyrido [2,3-d]pyrimidin-7(8H)-one] | 552 nM | 176 nM | 214 nM | – | – | 75 nM | –
6 | C[C@H](Nc1ncc2ccc(=O)n(CC(C)(C)CO)c2n1)c1ccc2ccccc2c1 [cpd 38, 8-(3-hydroxy-2,2-dimethylpropyl)-2-{[(1S)-1-(naphthalen-2-yl)ethyl]amino}pyrido[2,3-d]pyrimidin-7(8H)-one] | 7510 nM | 137 nM | 67 nM | – | 2640 nM | – | –
7 | C[C@H](Nc1ncc2ccc(=O)n([C@@H](C)C(C)(C)C)c2n1)c1ccc(CN2CCCC(F)(F)C2)cc1 [cpd 69, 2-{[(1S)-1-{4-[(3,3-difluoropiperidin-1-yl)methyl]phenyl}ethyl]amino}-8-[(2S)-3,3-dimethylbutan-2-yl]pyrido [2,3-d]pyrimidin-7(8H)-one] | – | 36 nM | 22 nM | – | 78 nM | – | –
8 | C[C@H](Nc1ncc2ccc(=O)n(CC(C)(C)CO)c2n1)c1ccc(-c2ccsc2)cc1 [cpd 136, 8-(3-hydroxy-2,2-dimethylpropyl)-2-({(1S)-1-[4-(thiophen-3-yl)phenyl]ethyl}amino)pyrido[2,3-d]pyrimidin-7 (8H)-one] | – | 122 nM | 54 nM | – | 2910 nM | – | –
9 | C/C=C/C(=O)N1CCN(Cc2ccc([C@H](C)Nc3ncc4ccc(=O)n(CC(C)(C)C)c4n3)cc2)CC1 [cpd 143, 2-({(1S)-1-[4-({4-[(2E)-but-2-enoyl]piperazin-1-yl}methyl)phenyl]ethyl}amino)-8-(2,2-dimethylpropyl) pyrido [2,3-d]pyrimidin-7(8H)-one] | – | 236 nM | 66 nM | 517 nM | – | – | –
10 | CC(C)[C@H](C)n1c(=O)ccc2cnc(N[C@@H](C)c3ccc(CN4C[C@@H](C)O[C@@H](C)C4)c(F)c3)nc21 [cpd 150, 2-{[(1S)-1-(4-{[(2R,6S)-2,6-dimethylmorpholin-4-yl]methyl}-3-fluorophenyl)ethyl]amino}-8-[(2S)-3-methylbutan-2-yl]pyrido[2,3-d]pyrimidin-7(8H)-one] | – | 20 nM | 8 nM | – | 127 nM | – | –
11 | CC(C)n1c(=O)ccc2cnc(N[C@@H](C)c3ccc([C@H](CC4CC4)N4CCN(C(=O)CCCl)CC4)cc3)nc21 [cpd 242, 2-{[(1S)-1-(4-{(1S)-1-[4-(3-chloropropanoyl)piperazin-1-yl]-2-cyclopropylethyl}phenyl)ethyl]amino}-8-(propan-2-yl)pyrido[2,3-d]pyrimidin-7(8H)-one] | – | – | 10 nM | 4.5 nM | – | – | –
12 | C[C@H](Nc1ncc2ccc(=O)n(Cc3c(F)cccc3F)c2n1)c1ccc(C(=O)N2CCC(F)(F)CC2)cc1 [cpd 77, 8-(2,6-difluorobenzyl)-2-{[(1S)-1-{4-[(4,4-difluoropiperidin-1-yl)carbonyl]phenyl}ethyl]amino} pyrido[2,3-d]pyrimidin-7(8H)-one] | – | 207 nM | 209 nM | – | 3030 nM | – | –
13 | C[C@@H]1CN(Cc2ccc([C@H](C)Nc3ncc4ccc(=O)n(CC(C)(C)C)c4n3)c(F)c2)C[C@H](C)O1 [cpd 151, 2-{[(1S)-1-(4-{[(2R,6S)-2,6-dimethylmorpholin-4-yl]methyl}-2-fluorophenyl)ethyl]amino}-8-(2,2-dimethylpropyl)pyrido[2,3-d]pyrimidin-7(8H)-one] | – | 95 nM | 20 nM | – | 321 nM | – | –
14 | C=CC(=O)N1CCN(C(CC)c2ccc([C@H](C)Nc3ncc4ccc(=O)n(C)c4n3)cc2)CC1 (stereo partly drawn) [cpd 215, 2-{[(1S)-1-{4-[1-(4-acryloylpiperazin-1-yl)propyl]phenyl}ethyl]amino}-8-methylpyrido[2,3-d]pyrimidin-7(8H)-one] | – | – | 4 nM | 2.3 nM | – | – | –
15 | C=CC(=O)N1CCN(Cc2ccc([C@H](C)Nc3ncc4ccc(=O)n(CC)c4n3)cc2)C(C(C)C)C1 (stereo in doubt) [cpd 212, 2-{[(1S)-1-(4-{[(2S)-4-acryloyl-2-(propan-2-yl)piperazin-1-yl]methyl}phenyl)ethyl]amino}-8-ethylpyrido[2,3-d]pyrimidin-7(8H)-one] | – | – | 61 nM | – | – | – | 53.1 nM
16 | C=CC(=O)N1CCN([C@@H](CC)c2ccc([C@H](C)Nc3cc4c(ccc(=O)n4CC)cn3)cc2)CC1 | 25 nM | 4 nM | 4 nM | 0.9 nM | – | – | –
17 | Cc1ccccc1Cn1c(=O)ccc2cnc(N[C@@H](C)c3ccc(CN4CCC(F)(F)CC4)cc3)nc21 [cpd 112, 2-{[(1S)-1-{4-[(4,4-difluoropiperidin-1-yl)methyl]phenyl}ethyl]amino}-8-(2-methylbenzyl)pyrido[2,3-d]pyrimidin-7(8H)-one] | – | 190 nM | 178 nM | – | 1610 nM | – | –
18 | CC(Nc1ncc2ccc(=O)n(CC(C)(C)C)c2n1)c1ccc(C(=O)NC2CCC(F)(F)CC2)c(Cl)c1 (centres unmarked) [cpd 82, 2-chloro-N-(4,4-difluorocyclohexyl)-4-(1-{[8-(2,2-dimethylpropyl)-7-oxo-pyrido[2,3-d]pyrimidin-2-yl]amino}ethyl) benzamide] | – | 146 nM | 134 nM | – | 1320 nM | – | –

Reference: patent US12018023B2 (NERVIANO MEDICAL SCIENCES S.R.L., priority 2018, dated 2024)
